# Where two headings read alike, the source gives them in different places.
# Legend:
# Assay type in all cases: biochemical
# MAPKAP-K1b = MAPKAP-K1b (Homo sapiens, UniProt P51812); test: MAPKAP-K1b 33P kinase assay; conditions: read-out: MAPKAP-K1b activity as percentage of control without inhibitor
# Procedure: (§1) All assays (25.5 μl) were carried out at room temperature (21° C.) and were linear with respect to time and enzyme concentrations under the conditions used. Assays were performed for 30 minutes except assays for LCK and PKB which were performed for 15 minutes using Multidrop Micro reagent dispensers (Thermo Electron Corporation, Waltham, Mass. 02454, USA) in a 96-well format. The concentration of […] [γ-^33P] ATP (800 cpm/pmol) in the assays was one of three concentrations (5, 20 or 50 μM) in order to be at or below Km for ATP for the enzyme. Assays were initiated with MgATP and stopped by addition of 5 μl of 0.5M orthophosphoric acid. Assays were then harvested onto P81 filterplates using a unifilter harvester (PerkinElmer, Boston, Mass. 02118, USA), with a wash buffer of 50 mM orthophosphoric acid. Filterplates were then air dried overnight. 10 μl of Microscint O was added per well prior to counting for radioactivity.
# (§2) MKK1, JNK/SAPK1c, SAPK2a/p38, SAPK2b/p38β2, SAPK3/p38γ, SAPK4/p38δ, MAPK2/ERK2, MAPKAP-K1β, MAPKAP-K2, MSK1, PRAK, PKA, PKCα, PDK1, SGK, p70S6K, GSK3β, ROCK-II, PRK2, AMPK, CHK1, CHK2, CK2, PHK, LCK, were assayed according to Davies et al., (Davies, S. P., Reddy, H., Caivano, M. and Cohen, P. Biochem. J. 351, 95-105, 2000.
# (§3) CSK and CDK2/cyclinA, were assayed according to Bain et al. (Bain J, McLauchlan H, Elliott M, Cohen P. Biochem J. 371, 199-204, 2003., except that ATP concentrations were either 5, 20 or 50 micromolar so that they were at or below the Km for ATP. The ATP concentrations used were as follows, 5 μM for assays of MKK1, SAPK3, SAPK4, GSK3β, PRK2 CK2 20 μm for assays of JNK, SAPK2β, MAPKAP-K2, MSK1, PRAK, PKA, […], PDK1, SGK, p70S6K, ROCK-II, CHK1, CHK2, CSK, CDK2, and 50 μM for assays of SAPK2a, MAPK2/ERK2, AMPK, LCK, PHK and MAPKAP-K1β.
# DYRK1a = molecular target: T1, DYRK1a (Homo sapiens, UniProt Q13627); test: biochemical; conditions: for remaining activity at 1 µM / remaining activity at 10 µM: read-out: DYRK1a activity as percentage of control without inhibitor
# T1 construct: made in house
# Procedure: DYRK1A (5-20 mU of diluted in 50 mM Tris pH 7.5, 0.1 mM EGTA) was assayed against Woodtide ([…]) in a final volume of 25.5 μl containing 50 mM Tris pH 7.5, 0.1 mM EGTA, 350 uM substrate peptide, 10 mM magnesium acetate and 0.5 μl inhibitor and incubated at room temperature for 5 mins, followed by the addition of 0.05 mM [33P-gamma-ATP] (50-1000 cpm/pmole) and incubated for 30 mins at room temperature. Assays were stopped by addition of 5 μl of 0.5 M (3%) orthophosphoric acid then harvested onto P81 Unifilter plates with a wash buffer of 50 mM orthophosphoric acid. Filterplates were then air dried overnight. 10 μl of Microscint O was added per well prior to counting for radioactivity.
# SAPK3/p38g = molecular target: T2, SAPK3/p38g (Homo sapiens, UniProt P53778); test: SAPK3/p38g 33P kinase assay; conditions: read-out: SAPK3/p38g activity as percentage of control without inhibitor
# T2 sequence (P53778 1-367): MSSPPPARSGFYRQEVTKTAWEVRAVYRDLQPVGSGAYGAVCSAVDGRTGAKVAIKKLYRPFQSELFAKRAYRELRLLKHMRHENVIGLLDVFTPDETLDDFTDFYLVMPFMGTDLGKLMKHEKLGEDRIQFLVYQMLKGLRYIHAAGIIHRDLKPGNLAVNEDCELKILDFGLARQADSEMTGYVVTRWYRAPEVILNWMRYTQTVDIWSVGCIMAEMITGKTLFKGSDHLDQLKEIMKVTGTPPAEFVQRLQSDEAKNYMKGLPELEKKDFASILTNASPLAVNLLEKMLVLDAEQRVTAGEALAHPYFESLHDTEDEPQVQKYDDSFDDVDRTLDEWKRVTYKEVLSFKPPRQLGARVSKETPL
# Procedure: as §1, §2, §3
# smMLCK = smMLCK (Homo sapiens, UniProt Q15746); test: smMLCK 33P kinase assay; conditions: read-out: smMLCK activity as percentage of control without inhibitor
# Procedure: as §1
# smMLCK (5-20 mU) diluted in 50 mM Hepes pH 7.5, 0.1 mM EGTA, 1 mg.ml BSA, 0.1% β-mercaptoethanol is assayed against substrate peptide […] in an incubation containing 50 mM Hepes pH 7.5, 0.1 mM EGTA, 5 mM CaCl2, 10 μM calmodulin, 300 μM substrate peptide, 10 mM magnesium acetate and 0.05 mM [^33P-γ-ATP] (500-1000 cpm/pmole).
# Chain of MAPKAP-K1b (P51812 whole entry, species assumed): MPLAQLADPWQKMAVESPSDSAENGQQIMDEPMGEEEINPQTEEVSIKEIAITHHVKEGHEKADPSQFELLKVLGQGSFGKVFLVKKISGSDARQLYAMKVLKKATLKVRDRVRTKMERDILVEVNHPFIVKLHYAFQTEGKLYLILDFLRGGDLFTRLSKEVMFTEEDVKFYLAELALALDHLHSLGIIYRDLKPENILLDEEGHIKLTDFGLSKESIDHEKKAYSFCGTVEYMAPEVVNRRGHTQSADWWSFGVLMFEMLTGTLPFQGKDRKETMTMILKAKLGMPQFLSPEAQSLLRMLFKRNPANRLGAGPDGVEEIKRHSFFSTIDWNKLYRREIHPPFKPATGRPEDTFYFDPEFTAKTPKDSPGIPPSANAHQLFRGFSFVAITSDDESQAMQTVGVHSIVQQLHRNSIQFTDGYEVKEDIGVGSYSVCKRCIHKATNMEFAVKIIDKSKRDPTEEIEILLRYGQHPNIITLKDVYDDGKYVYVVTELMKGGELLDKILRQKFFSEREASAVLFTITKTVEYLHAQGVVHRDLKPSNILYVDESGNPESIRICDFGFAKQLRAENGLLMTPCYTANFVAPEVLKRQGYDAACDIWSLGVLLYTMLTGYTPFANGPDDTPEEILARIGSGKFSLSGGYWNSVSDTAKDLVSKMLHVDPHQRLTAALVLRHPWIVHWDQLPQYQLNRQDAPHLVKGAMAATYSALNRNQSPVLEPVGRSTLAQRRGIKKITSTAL
SMILES,remaining activity at 1 µM (MAPKAP-K1b; inhibitor 1 μM) [%],remaining activity at 10 µM (MAPKAP-K1b; inhibitor 10 μM) [%],remaining activity at 1 µM (DYRK1a; inhibitor 1 μM) [%],remaining activity at 10 µM (DYRK1a; inhibitor 10 μM) [%],remaining activity at 1 µM (SAPK3/p38g; inhibitor 1 μM) [%],remaining activity at 10 µM (SAPK3/p38g; inhibitor 10 μM) [%],remaining activity at 1 µM (smMLCK; inhibitor 1 μM) [%],remaining activity at 10 µM (smMLCK; inhibitor 10 μM) [%],remaining activity at 1 µM (MAPKAP-K1b) [%],remaining activity at 10 µM (MAPKAP-K1b) [%],"inhibition of DYRK1a, result in words (DYRK1a)",remaining activity at 1 µM (DYRK1a) [%],remaining activity at 10 µM (DYRK1a) [%],remaining activity at 1 µM (SAPK3/p38g) [%],remaining activity at 10 µM (SAPK3/p38g) [%],remaining activity at 1 µM (smMLCK) [%],remaining activity at 10 µM (smMLCK) [%]
COc1ccc2c3c([nH]c2c1)C(C)=NCC3 [Harmaline],87,80,78,8,98,94,92,104,,,,,,,,,
CC1=NCCc2c1[nH]c1cc(O)ccc21 [Harmalol],87,67,25,3,98,92,76,71,,,,,,,,,
COc1ccc2c(c1)[nH]c1c(C)nccc12 [Harmine],,,,,,,,,89,95,very potent and specific inhibitor of DYRK1a,4,1,82,72,88,76

# Source: patent publication US20100063085A1, “METHOD OF TREATING LEARNING IMPAIRMENT IN DOWN'S SYNDROME SUBJECTS” (University Court of The University of Dundee, priority 2008, published 2010)
